Experimental data as given in the NIST ThermoML archive (doi:10.1016/j.jct.2018.01.024).
Numbers after ± are expanded uncertainties.

Test: mn = molality of the nth substance listed, in mol/kg
Conditions: Liquid

NC(N)=O [urea] + O
mass density [kg/m3]
Conditions	288.15 K	298.15 K	308.15 K	323.15 K	333.15 K
101 kPa, Vibrating tube method, m1 = 0.093	–	998.52 ± 0.09	995.45 ± 0.09	989.4 ± 0.09	984.53 ± 0.09
101 kPa, Vibrating tube method, m1 = 0.1063	–	998.73 ± 0.08	995.65 ± 0.08	989.59 ± 0.09	984.72 ± 0.09
101 kPa, Vibrating tube method, m1 = 0.141	–	999.27 ± 0.08	996.18 ± 0.08	990.1 ± 0.09	985.22 ± 0.09
101 kPa, Vibrating tube method, m1 = 0.152	–	999.45 ± 0.08	996.35 ± 0.08	990.26 ± 0.08	985.38 ± 0.09
101 kPa, Vibrating tube method, m1 = 0.1809	–	999.9 ± 0.08	996.79 ± 0.08	990.68 ± 0.09	985.79 ± 0.09
101 kPa, Vibrating tube method, m1 = 0.2423	–	1000.86 ± 0.08	997.71 ± 0.08	991.57 ± 0.09	986.66 ± 0.09
101 kPa, Vibrating tube method, m1 = 0.4362	–	1003.84 ± 0.08	1000.59 ± 0.08	994.33 ± 0.08	989.38 ± 0.09
101 kPa, Vibrating tube method, m1 = 0.5644	–	1005.78 ± 0.08	1002.47 ± 0.08	996.13 ± 0.08	991.15 ± 0.09
101 kPa, Vibrating tube method, m1 = 1.008	–	1012.3 ± 0.09	1008.78 ± 0.09	1002.19 ± 0.08	997.11 ± 0.08
101 kPa, Vibrating tube method, m1 = 1.609	–	1020.67 ± 0.23	1016.91 ± 0.23	1010.03 ± 0.22	1004.81 ± 0.22
101 kPa, Vibrating tube method, m1 = 2.505	–	1032.29 ± 0.22	1028.21 ± 0.22	1020.95 ± 0.21	1015.53 ± 0.21
101 kPa, Vibrating tube method, m1 = 3.376	–	1042.7 ± 0.21	1038.34 ± 0.2	1030.77 ± 0.2	1025.17 ± 0.2
101 kPa, Vibrating tube method, m1 = 4.33	–	1053.2 ± 0.2	1048.55 ± 0.19	1040.72 ± 0.19	1034.98 ± 0.19
101 kPa, Vibrating tube method, m1 = 5.39	–	1063.84 ± 0.91	1058.96 ± 0.89	1050.87 ± 0.87	1044.98 ± 0.86
101 kPa, Vibrating tube method, m1 = 8	–	1086.63 ± 0.83	1081.22 ± 0.81	1072.6 ± 0.79	1066.38 ± 0.78
101 kPa, Vibrating tube method, m1 = 9.9	–	1100.56 ± 0.68	1094.97 ± 0.67	1086.08 ± 0.65	1079.64 ± 0.64
101 kPa, Vibrating tube method, m1 = 12.8	–	1118.82 ± 0.64	1112.9 ± 0.63	1103.59 ± 0.61	1096.9 ± 0.61
10000 kPa, Constant-volume piezometry, m1 = 0.1809	–	1004.31 ± 0.19	1001.1 ± 0.2	994.94 ± 0.21	–
10000 kPa, Constant-volume piezometry, m1 = 0.4362	–	1008.22 ± 0.19	1004.89 ± 0.2	998.57 ± 0.21	–
10000 kPa, Constant-volume piezometry, m1 = 0.5644	–	1010.14 ± 0.19	1006.76 ± 0.2	1000.36 ± 0.21	–
10000 kPa, Constant-volume piezometry, m1 = 1.609	–	1024.95 ± 0.26	1021.13 ± 0.27	1014.19 ± 0.27	–
10000 kPa, Constant-volume piezometry, m1 = 2.505	–	1036.5 ± 0.26	1032.37 ± 0.27	1025.05 ± 0.28	–
10000 kPa, Constant-volume piezometry, m1 = 3.376	–	1046.86 ± 0.27	1042.44 ± 0.27	1034.82 ± 0.28	–
10000 kPa, Constant-volume piezometry, m1 = 5.39	–	1067.88 ± 1.1	1062.95 ± 1.1	1054.83 ± 1.1	–
10000 kPa, Constant-volume piezometry, m1 = 8	–	1090.56 ± 1.1	1085.13 ± 1.1	1076.49 ± 1.1	–
10000 kPa, Constant-volume piezometry, m1 = 10.99	–	1111.68 ± 1.1	1105.95 ± 1.1	1096.87 ± 1.1	–
10000 kPa, Constant-volume piezometry, m1 = 12.8	–	1122.59 ± 1.1	1116.69 ± 1.1	1107.38 ± 1.1	–
25000 kPa, Constant-volume piezometry, m1 = 0.1809	–	1010.8 ± 0.28	1007.46 ± 0.29	1001.22 ± 0.3	–
25000 kPa, Constant-volume piezometry, m1 = 0.4362	–	1014.67 ± 0.28	1011.22 ± 0.29	1004.83 ± 0.3	–
25000 kPa, Constant-volume piezometry, m1 = 0.5644	–	1016.58 ± 0.28	1013.08 ± 0.29	1006.62 ± 0.31	–
25000 kPa, Constant-volume piezometry, m1 = 1.609	–	1031.23 ± 0.33	1027.31 ± 0.34	1020.35 ± 0.35	–
25000 kPa, Constant-volume piezometry, m1 = 2.505	–	1042.68 ± 0.34	1038.45 ± 0.35	1031.14 ± 0.36	–
25000 kPa, Constant-volume piezometry, m1 = 3.376	–	1052.93 ± 0.34	1048.43 ± 0.35	1040.83 ± 0.36	–
25000 kPa, Constant-volume piezometry, m1 = 5.39	–	1073.78 ± 1.1	1068.78 ± 1.1	1060.7 ± 1.1	–
25000 kPa, Constant-volume piezometry, m1 = 8	–	1096.33 ± 1.1	1090.83 ± 1.1	1082.18 ± 1.1	–
25000 kPa, Constant-volume piezometry, m1 = 10.99	–	1117.29 ± 1.2	1111.57 ± 1.2	1102.45 ± 1.2	–
25000 kPa, Constant-volume piezometry, m1 = 12.8	–	1128.17 ± 1.2	1122.24 ± 1.2	1112.95 ± 1.2	–
50000 kPa, Constant-volume piezometry, m1 = 0.1809	–	1021.19 ± 0.48	1017.66 ± 0.49	1011.26 ± 0.5	–
50000 kPa, Constant-volume piezometry, m1 = 0.4362	–	1025 ± 0.48	1021.35 ± 0.49	1014.82 ± 0.5	–
50000 kPa, Constant-volume piezometry, m1 = 0.5644	–	1026.87 ± 0.48	1023.19 ± 0.49	1016.57 ± 0.5	–
50000 kPa, Constant-volume piezometry, m1 = 1.609	–	1041.28 ± 0.51	1037.21 ± 0.52	1030.14 ± 0.54	–
50000 kPa, Constant-volume piezometry, m1 = 2.505	–	1052.51 ± 0.52	1048.14 ± 0.53	1040.78 ± 0.54	–
50000 kPa, Constant-volume piezometry, m1 = 3.376	–	1062.57 ± 0.53	1057.95 ± 0.54	1050.36 ± 0.55	–
50000 kPa, Constant-volume piezometry, m1 = 5.39	–	1083.08 ± 1.2	1078.02 ± 1.2	1069.99 ± 1.2	–
50000 kPa, Constant-volume piezometry, m1 = 8	–	1105.37 ± 1.2	1099.83 ± 1.2	1091.23 ± 1.2	–
50000 kPa, Constant-volume piezometry, m1 = 10.99	–	1126.18 ± 1.2	1120.31 ± 1.2	1111.32 ± 1.2	–
50000 kPa, Constant-volume piezometry, m1 = 12.8	–	1136.9 ± 1.3	1130.92 ± 1.3	1121.73 ± 1.3	–
75000 kPa, Constant-volume piezometry, m1 = 0.1809	–	1031.09 ± 0.68	1027.35 ± 0.69	1020.8 ± 0.7	–
75000 kPa, Constant-volume piezometry, m1 = 0.4362	–	1034.82 ± 0.68	1030.99 ± 0.69	1024.31 ± 0.7	–
75000 kPa, Constant-volume piezometry, m1 = 0.5644	–	1036.66 ± 0.68	1032.8 ± 0.69	1026.04 ± 0.71	–
75000 kPa, Constant-volume piezometry, m1 = 1.609	–	1050.81 ± 0.71	1046.61 ± 0.72	1039.38 ± 0.74	–
75000 kPa, Constant-volume piezometry, m1 = 2.505	–	1061.84 ± 0.72	1057.37 ± 0.73	1049.87 ± 0.74	–
75000 kPa, Constant-volume piezometry, m1 = 3.376	–	1071.73 ± 0.73	1067.04 ± 0.74	1059.32 ± 0.75	–
75000 kPa, Constant-volume piezometry, m1 = 5.39	–	1091.95 ± 1.3	1086.84 ± 1.3	1078.73 ± 1.3	–
75000 kPa, Constant-volume piezometry, m1 = 8	–	1113.92 ± 1.3	1108.4 ± 1.3	1099.84 ± 1.3	–
75000 kPa, Constant-volume piezometry, m1 = 10.99	–	1134.57 ± 1.4	1128.64 ± 1.4	1119.74 ± 1.4	–
75000 kPa, Constant-volume piezometry, m1 = 12.8	–	1145.19 ± 1.4	1139.16 ± 1.4	1130.01 ± 1.4	–
100000 kPa, Constant-volume piezometry, m1 = 0.1809	–	1040.52 ± 0.89	1036.61 ± 0.9	1029.92 ± 0.91	–
100000 kPa, Constant-volume piezometry, m1 = 0.4362	–	1044.19 ± 0.89	1040.2 ± 0.9	1033.37 ± 0.91	–
100000 kPa, Constant-volume piezometry, m1 = 0.5644	1049.66 ± 0.88	1046 ± 0.89	1041.98 ± 0.9	1035.08 ± 0.91	–
100000 kPa, Constant-volume piezometry, m1 = 1.609	1063.93 ± 0.91	1059.92 ± 0.92	1055.64 ± 0.93	1048.25 ± 0.94	–
100000 kPa, Constant-volume piezometry, m1 = 2.505	1075.04 ± 0.92	1070.84 ± 0.93	1066.32 ± 0.94	1058.62 ± 0.95	–
100000 kPa, Constant-volume piezometry, m1 = 3.376	1085.01 ± 0.93	1080.63 ± 0.94	1075.91 ± 0.95	1067.97 ± 0.96	–
100000 kPa, Constant-volume piezometry, m1 = 5.39	1105.48 ± 1.4	1100.6 ± 1.4	1095.48 ± 1.4	1087.2 ± 1.4	–
100000 kPa, Constant-volume piezometry, m1 = 8	1127.8 ± 1.5	1122.4 ± 1.5	1116.79 ± 1.5	1108.07 ± 1.5	–
100000 kPa, Constant-volume piezometry, m1 = 10.99	1148.53 ± 1.5	1142.75 ± 1.5	1136.92 ± 1.5	1127.82 ± 1.5	–
100000 kPa, Constant-volume piezometry, m1 = 12.8	1159.2 ± 1.5	1153.24 ± 1.5	1147.3 ± 1.5	1138.03 ± 1.5	–
